Test results taken from the NIST ThermoML archive (doi:10.1021/je020131a).
“And” between values parts separate entries of the source, which are not always exact repeats. Equal values may be shown once. Numbers after ± are expanded uncertainties.

Tests used:
[1] = xn = mol fraction of the nth substance listed; details: 101.3 kPa, Liquid, Falling or rolling sphere viscometry
[2] = Liquid; for viscosity: 101.3 kPa, Falling or rolling sphere viscometry; for mass density: 101.33 kPa, Vibrating tube method

COC(=O)OC [dimethyl carbonate] + CCCCCCC
viscosity ([1]; 293.15 K, x1 = 0.05): 0.407 ± 0.02 mPa·s | viscosity ([1]; 293.15 K, x1 = 0.094): 0.405 ± 0.02 mPa·s | viscosity ([1]; 293.15 K, x1 = 0.2039): 0.407 ± 0.02 mPa·s | viscosity ([1]; 293.15 K, x1 = 0.324): 0.413 ± 0.02 mPa·s | viscosity ([1]; 293.15 K, x1 = 0.4062): 0.422 ± 0.02 mPa·s | viscosity ([1]; 293.15 K, x1 = 0.5059): 0.441 ± 0.02 mPa·s | viscosity ([1]; 293.15 K, x1 = 0.6099): 0.462 ± 0.02 mPa·s | viscosity ([1]; 293.15 K, x1 = 0.6987): 0.488 ± 0.02 mPa·s | viscosity ([1]; 293.15 K, x1 = 0.8086): 0.527 ± 0.021 mPa·s | viscosity ([1]; 293.15 K, x1 = 0.9029): 0.567 ± 0.021 mPa·s | viscosity ([1]; 293.15 K, x1 = 0.9504): 0.594 ± 0.021 mPa·s | viscosity ([1]; 293.15 K, x1 = 1): 0.626 ± 0.021 mPa·s | viscosity ([1]; 298.15 K, x1 = 0.0594): 0.383 ± 0.02 mPa·s | viscosity ([1]; 298.15 K, x1 = 0.1204): 0.384 ± 0.02 mPa·s | viscosity ([1]; 298.15 K, x1 = 0.2132): 0.385 ± 0.02 mPa·s | viscosity ([1]; 298.15 K, x1 = 0.3135): 0.388 ± 0.02 mPa·s | viscosity ([1]; 298.15 K, x1 = 0.4018): 0.397 ± 0.02 mPa·s | viscosity ([1]; 298.15 K, x1 = 0.4716): 0.406 ± 0.02 mPa·s | viscosity ([1]; 298.15 K, x1 = 0.6051): 0.43 ± 0.02 mPa·s | viscosity ([1]; 298.15 K, x1 = 0.6946): 0.452 ± 0.02 mPa·s | viscosity ([1]; 298.15 K, x1 = 0.8031): 0.489 ± 0.02 mPa·s | viscosity ([1]; 298.15 K, x1 = 0.902): 0.528 ± 0.021 mPa·s | viscosity ([1]; 298.15 K, x1 = 0.9477): 0.554 ± 0.021 mPa·s | viscosity ([1]; 298.15 K, x1 = 1): 0.585 ± 0.021 mPa·s | viscosity ([1]; 303.15 K, x1 = 0.0586): 0.37 ± 0.02 mPa·s | viscosity ([1]; 303.15 K, x1 = 0.0873): 0.367 ± 0.02 mPa·s | viscosity ([1]; 303.15 K, x1 = 0.1996): 0.368 ± 0.02 mPa·s | viscosity ([1]; 303.15 K, x1 = 0.299): 0.375 ± 0.02 mPa·s | viscosity ([1]; 303.15 K, x1 = 0.4009): 0.388 ± 0.02 mPa·s | viscosity ([1]; 303.15 K, x1 = 0.5081): 0.403 ± 0.02 mPa·s | viscosity ([1]; 303.15 K, x1 = 0.6069): 0.426 ± 0.02 mPa·s | viscosity ([1]; 303.15 K, x1 = 0.6979): 0.454 ± 0.02 mPa·s | viscosity ([1]; 303.15 K, x1 = 0.8051): 0.495 ± 0.02 mPa·s | viscosity ([1]; 303.15 K, x1 = 0.9069): 0.518 ± 0.021 mPa·s | viscosity ([1]; 303.15 K, x1 = 0.9638): 0.518 ± 0.021 mPa·s | viscosity ([1]; 303.15 K, x1 = 1): 0.536 ± 0.021 mPa·s | viscosity ([1]; 313.15 K, x1 = 0.0649): 0.33 ± 0.02 mPa·s | viscosity ([1]; 313.15 K, x1 = 0.1157): 0.328 ± 0.02 mPa·s | viscosity ([1]; 313.15 K, x1 = 0.3432): 0.334 ± 0.02 mPa·s | viscosity ([1]; 313.15 K, x1 = 0.4378): 0.341 ± 0.02 mPa·s | viscosity ([1]; 313.15 K, x1 = 0.5458): 0.355 ± 0.02 mPa·s | viscosity ([1]; 313.15 K, x1 = 0.6259): 0.37 ± 0.02 mPa·s | viscosity ([1]; 313.15 K, x1 = 0.7191): 0.393 ± 0.02 mPa·s | viscosity ([1]; 313.15 K, x1 = 0.8128): 0.416 ± 0.02 mPa·s | viscosity ([1]; 313.15 K, x1 = 0.8798): 0.443 ± 0.02 mPa·s | viscosity ([1]; 313.15 K, x1 = 0.9536): 0.475 ± 0.02 mPa·s | viscosity ([1]; 313.15 K, x1 = 0.9822): 0.485 ± 0.02 mPa·s | viscosity ([1]; 313.15 K, x1 = 1): 0.494 ± 0.02 mPa·s

COC(=O)OC [dimethyl carbonate] + CCCCCCCC
viscosity ([1]; 293.15 K, x1 = 0.0513): 0.532 ± 0.021 mPa·s | viscosity ([1]; 293.15 K, x1 = 0.0997): 0.524 ± 0.021 mPa·s | viscosity ([1]; 293.15 K, x1 = 0.2027): 0.508 ± 0.02 mPa·s | viscosity ([1]; 293.15 K, x1 = 0.3063): 0.506 ± 0.02 mPa·s | viscosity ([1]; 293.15 K, x1 = 0.3994): 0.502 ± 0.02 mPa·s | viscosity ([1]; 293.15 K, x1 = 0.5123): 0.507 ± 0.02 mPa·s | viscosity ([1]; 293.15 K, x1 = 0.6078): 0.512 ± 0.021 mPa·s | viscosity ([1]; 293.15 K, x1 = 0.7137): 0.524 ± 0.021 mPa·s | viscosity ([1]; 293.15 K, x1 = 0.8055): 0.541 ± 0.021 mPa·s | viscosity ([1]; 293.15 K, x1 = 0.9061): 0.575 ± 0.021 mPa·s | viscosity ([1]; 293.15 K, x1 = 0.9516): 0.596 ± 0.021 mPa·s | viscosity ([1]; 293.15 K, x1 = 1): 0.626 ± 0.021 mPa·s | viscosity ([1]; 298.15 K, x1 = 0.0558): 0.504 ± 0.02 mPa·s | viscosity ([1]; 298.15 K, x1 = 0.096): 0.498 ± 0.02 mPa·s | viscosity ([1]; 298.15 K, x1 = 0.1488): 0.489 ± 0.02 mPa·s | viscosity ([1]; 298.15 K, x1 = 0.2289): 0.478 ± 0.02 mPa·s | viscosity ([1]; 298.15 K, x1 = 0.2947): 0.477 ± 0.02 mPa·s | viscosity ([1]; 298.15 K, x1 = 0.4216): 0.474 ± 0.02 mPa·s | viscosity ([1]; 298.15 K, x1 = 0.4883): 0.475 ± 0.02 mPa·s | viscosity ([1]; 298.15 K, x1 = 0.5931): 0.479 ± 0.02 mPa·s | viscosity ([1]; 298.15 K, x1 = 0.6867): 0.491 ± 0.02 mPa·s | viscosity ([1]; 298.15 K, x1 = 0.7879): 0.509 ± 0.021 mPa·s | viscosity ([1]; 298.15 K, x1 = 0.8873): 0.541 ± 0.021 mPa·s | viscosity ([1]; 298.15 K, x1 = 0.9502): 0.561 ± 0.021 mPa·s | viscosity ([1]; 298.15 K, x1 = 1): 0.585 ± 0.021 mPa·s | viscosity ([1]; 303.15 K, x1 = 0.0519): 0.478 ± 0.02 mPa·s | viscosity ([1]; 303.15 K, x1 = 0.0827): 0.474 ± 0.02 mPa·s | viscosity ([1]; 303.15 K, x1 = 0.1947): 0.457 ± 0.02 mPa·s | viscosity ([1]; 303.15 K, x1 = 0.2829): 0.452 ± 0.02 mPa·s | viscosity ([1]; 303.15 K, x1 = 0.3948): 0.45 ± 0.02 mPa·s | viscosity ([1]; 303.15 K, x1 = 0.4942): 0.448 ± 0.02 mPa·s | viscosity ([1]; 303.15 K, x1 = 0.5964): 0.45 ± 0.02 mPa·s | viscosity ([1]; 303.15 K, x1 = 0.6983): 0.46 ± 0.02 mPa·s | viscosity ([1]; 303.15 K, x1 = 0.7886): 0.473 ± 0.02 mPa·s | viscosity ([1]; 303.15 K, x1 = 0.8946): 0.5 ± 0.02 mPa·s | viscosity ([1]; 303.15 K, x1 = 0.9545): 0.52 ± 0.021 mPa·s | viscosity ([1]; 303.15 K, x1 = 1): 0.536 ± 0.021 mPa·s | viscosity ([1]; 313.15 K, x1 = 0.0512): 0.432 ± 0.02 mPa·s | viscosity ([1]; 313.15 K, x1 = 0.1005): 0.43 ± 0.02 mPa·s | viscosity ([1]; 313.15 K, x1 = 0.186): 0.419 ± 0.02 mPa·s | viscosity ([1]; 313.15 K, x1 = 0.301): 0.413 ± 0.02 mPa·s | viscosity ([1]; 313.15 K, x1 = 0.4072): 0.409 ± 0.02 mPa·s | viscosity ([1]; 313.15 K, x1 = 0.5002): 0.41 ± 0.02 mPa·s | viscosity ([1]; 313.15 K, x1 = 0.6042): 0.417 ± 0.02 mPa·s | viscosity ([1]; 313.15 K, x1 = 0.709): 0.43 ± 0.02 mPa·s | viscosity ([1]; 313.15 K, x1 = 0.7993): 0.446 ± 0.02 mPa·s | viscosity ([1]; 313.15 K, x1 = 0.8465): 0.459 ± 0.02 mPa·s | viscosity ([1]; 313.15 K, x1 = 0.9524): 0.485 ± 0.02 mPa·s | viscosity ([1]; 313.15 K, x1 = 1): 0.494 ± 0.02 mPa·s

CCCCCCC [heptane]
viscosity ([2]; 293.15 K): 0.411 ± 0.02 mPa·s | viscosity ([2]; 298.15 K): 0.388 ± 0.02 mPa·s | mass density ([2]; 298.15 K): 679.4 ± 0.3 kg/m3 | viscosity ([2]; 303.15 K): 0.37 ± 0.02 mPa·s and 0.375 ± 0.02 mPa·s | viscosity ([2]; 313.15 K): 0.334 ± 0.02 mPa·s

CCCCCCC [heptane] + CCOC(=O)OCC
viscosity ([1]; 293.15 K, x2 = 0): 0.411 ± 0.02 mPa·s | viscosity ([1]; 298.15 K, x2 = 0): 0.388 ± 0.02 mPa·s | viscosity ([1]; 303.15 K, x2 = 0): 0.375 ± 0.02 mPa·s | viscosity ([1]; 313.15 K, x2 = 0): 0.334 ± 0.02 mPa·s

CCCCCCC [heptane] + COC(=O)OC
viscosity ([1]; 293.15 K, x2 = 0): 0.411 ± 0.02 mPa·s | viscosity ([1]; 298.15 K, x2 = 0): 0.388 ± 0.02 mPa·s | viscosity ([1]; 303.15 K, x2 = 0): 0.37 ± 0.02 mPa·s | viscosity ([1]; 313.15 K, x2 = 0): 0.334 ± 0.02 mPa·s

CCCCCC [hexane]
viscosity ([2]; 293.15 K): 0.313 ± 0.02 mPa·s | viscosity ([2]; 298.15 K): 0.301 ± 0.02 mPa·s | mass density ([2]; 298.15 K): 654.8 ± 0.3 kg/m3 | viscosity ([2]; 303.15 K): 0.282 ± 0.02 mPa·s | viscosity ([2]; 313.15 K): 0.258 ± 0.02 mPa·s

CCCCCC [hexane] + CCOC(=O)OCC
viscosity ([1]; 293.15 K, x2 = 0): 0.313 ± 0.02 mPa·s | viscosity ([1]; 298.15 K, x2 = 0): 0.301 ± 0.02 mPa·s | viscosity ([1]; 303.15 K, x2 = 0): 0.282 ± 0.02 mPa·s | viscosity ([1]; 313.15 K, x2 = 0): 0.258 ± 0.02 mPa·s

CCCCCC [hexane] + COC(=O)OC
viscosity ([1]; 293.15 K, x2 = 0): 0.313 ± 0.02 mPa·s | viscosity ([1]; 298.15 K, x2 = 0): 0.301 ± 0.02 mPa·s | viscosity ([1]; 303.15 K, x2 = 0): 0.282 ± 0.02 mPa·s | viscosity ([1]; 313.15 K, x2 = 0): 0.258 ± 0.02 mPa·s

CCCCCCCC [octane]
viscosity ([2]; 293.15 K): 0.545 ± 0.021 mPa·s | viscosity ([2]; 298.15 K): 0.513 ± 0.021 mPa·s | mass density ([2]; 298.15 K): 698.5 ± 0.4 kg/m3 | viscosity ([2]; 303.15 K): 0.484 ± 0.02 mPa·s | viscosity ([2]; 313.15 K): 0.434 ± 0.02 mPa·s

CCCCCCCC [octane] + CCOC(=O)OCC
viscosity ([1]; 293.15 K, x2 = 0): 0.545 ± 0.021 mPa·s | viscosity ([1]; 298.15 K, x2 = 0): 0.513 ± 0.021 mPa·s | viscosity ([1]; 303.15 K, x2 = 0): 0.484 ± 0.02 mPa·s | viscosity ([1]; 313.15 K, x2 = 0): 0.434 ± 0.02 mPa·s

CCCCCCCC [octane] + COC(=O)OC
viscosity ([1]; 293.15 K, x2 = 0): 0.545 ± 0.021 mPa·s | viscosity ([1]; 298.15 K, x2 = 0): 0.513 ± 0.021 mPa·s | viscosity ([1]; 303.15 K, x2 = 0): 0.484 ± 0.02 mPa·s | viscosity ([1]; 313.15 K, x2 = 0): 0.434 ± 0.02 mPa·s
